Results published in ChEMBL document CHEMBL1629443 (J Med Chem, 2010).

What was measured:
CAL-27 = test: Cytotoxicity against human CAL27 cells overexpressing EGFR by resazurin dye reduction assay
HeLa = test: Cytotoxicity against human HeLa cells overexpressing HDAC by resazurin dye reduction assay
SK-OV-3 = test: Cytotoxicity against human SKOV3 cells overexpressing HER2 by resazurin dye reduction assay; assay type: functional, cell-based
Histone deacetylase 8 = target: T1, Histone deacetylase 8 (Homo sapiens, UniProt Q9BY41); test: Inhibition of Flag tagged human recombinant HDAC8 expressed in Sf21 cells
T1 sequence (Q9BY41 whole entry): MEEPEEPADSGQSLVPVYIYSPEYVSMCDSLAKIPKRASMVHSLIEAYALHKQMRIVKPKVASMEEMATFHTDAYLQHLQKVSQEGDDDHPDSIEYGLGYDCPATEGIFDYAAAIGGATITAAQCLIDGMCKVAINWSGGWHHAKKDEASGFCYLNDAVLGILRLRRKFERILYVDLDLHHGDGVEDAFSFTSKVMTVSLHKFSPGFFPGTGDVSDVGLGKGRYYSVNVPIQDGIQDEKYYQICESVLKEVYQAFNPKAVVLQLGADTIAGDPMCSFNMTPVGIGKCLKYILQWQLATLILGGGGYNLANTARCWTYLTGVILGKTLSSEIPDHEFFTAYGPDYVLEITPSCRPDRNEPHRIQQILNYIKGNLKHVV

Histone deacetylase 3 = Histone deacetylase 3 (Homo sapiens, UniProt O15379); test: Inhibition of Flag tagged human recombinant HDAC3 expressed in Sf21 cells coexpressing SMRT DAD domain
[1] = Inhibition of PKA by flash plate based radioactive enzyme assay
[2] = target: T2, Protein deacetylase HDAC6 (Homo sapiens, UniProt Q9UBN7); test: Inhibition of human recombinant HDAC6 expressed in HEK293 cells; assay type: cell-based
T2 sequence (Q9UBN7 whole entry): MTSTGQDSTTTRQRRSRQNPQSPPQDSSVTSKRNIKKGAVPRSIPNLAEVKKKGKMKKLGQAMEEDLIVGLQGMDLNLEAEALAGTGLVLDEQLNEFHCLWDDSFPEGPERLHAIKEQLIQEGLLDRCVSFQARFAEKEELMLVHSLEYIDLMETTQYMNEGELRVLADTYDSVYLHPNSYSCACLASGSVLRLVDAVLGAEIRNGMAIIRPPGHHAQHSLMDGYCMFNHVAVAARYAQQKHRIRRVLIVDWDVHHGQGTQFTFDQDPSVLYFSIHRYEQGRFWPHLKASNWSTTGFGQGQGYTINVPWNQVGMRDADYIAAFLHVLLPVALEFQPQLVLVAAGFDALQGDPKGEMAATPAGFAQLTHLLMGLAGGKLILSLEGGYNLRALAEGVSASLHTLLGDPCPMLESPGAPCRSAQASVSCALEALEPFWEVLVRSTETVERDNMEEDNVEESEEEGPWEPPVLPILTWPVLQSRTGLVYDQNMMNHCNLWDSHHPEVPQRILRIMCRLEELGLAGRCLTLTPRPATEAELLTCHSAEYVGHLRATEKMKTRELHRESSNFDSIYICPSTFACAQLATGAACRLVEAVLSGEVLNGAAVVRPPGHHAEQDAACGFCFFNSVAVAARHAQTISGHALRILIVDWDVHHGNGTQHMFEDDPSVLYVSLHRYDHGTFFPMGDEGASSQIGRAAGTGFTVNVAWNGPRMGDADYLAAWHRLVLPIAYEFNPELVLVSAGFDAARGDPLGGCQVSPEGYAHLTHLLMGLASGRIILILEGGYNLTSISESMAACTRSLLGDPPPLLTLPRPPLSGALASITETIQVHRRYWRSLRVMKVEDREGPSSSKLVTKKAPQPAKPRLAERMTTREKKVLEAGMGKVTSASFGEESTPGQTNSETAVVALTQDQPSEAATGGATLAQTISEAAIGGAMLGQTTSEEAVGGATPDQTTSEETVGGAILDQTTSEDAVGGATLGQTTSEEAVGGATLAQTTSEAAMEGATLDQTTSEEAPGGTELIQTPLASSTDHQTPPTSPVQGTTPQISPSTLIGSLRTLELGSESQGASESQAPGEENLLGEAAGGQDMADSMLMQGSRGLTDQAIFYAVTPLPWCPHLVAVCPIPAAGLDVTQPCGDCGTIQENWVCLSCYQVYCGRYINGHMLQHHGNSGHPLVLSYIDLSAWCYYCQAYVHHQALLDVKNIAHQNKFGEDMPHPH

SK-BR-3 = test: Cytotoxicity against human SKBR3 cells overexpressing HER2 by resazurin dye reduction assay
[3] = Inhibition of HDAC assessed as histone H3K'9+14 acetylation levels by cell based histone H3 hyperacetylation assay
[4] = target: Tyrosine-protein kinase ABL1 (Homo sapiens, UniProt P00519); test: Inhibition of ABL1 by flash plate based radioactive enzyme assay
Insulin receptor = Insulin receptor (Homo sapiens, UniProt P06213); test: Inhibition of INSR by flash plate based radioactive enzyme assay
[5] = target: T3, Epidermal growth factor receptor (Homo sapiens, UniProt P00533); test: Inhibition of EGFR by flash plate based radioactive enzyme assay
[6] = target: Serine/threonine-protein kinase PLK1 (Homo sapiens, UniProt P53350); test: Inhibition of PLK1 by flash plate based radioactive enzyme assay
Histone deacetylase 1 = Histone deacetylase 1 (Homo sapiens, UniProt Q13547); test: Inhibition of human recombinant HDAC1 expressed in HEK293 cells; assay type: cell-based
[7] = target: Platelet-derived growth factor receptor beta (Homo sapiens, UniProt P09619); test: Inhibition of PDGFRbeta by flash plate based radioactive enzyme assay
[8] = target: Cyclin-dependent kinase 2 (Homo sapiens, UniProt P24941); test: Inhibition of CDK2 by flash plate based radioactive enzyme assay
[9] = target: Receptor tyrosine-protein kinase erbB-2 (Homo sapiens, UniProt P04626); test: Inhibition of HER2 by flash plate based radioactive enzyme assay
Histone deacetylase = test: Inhibition of HDAC in human HeLa cell nuclear extracts; assay type: cell-based
A-431 = test: Cytotoxicity against human A431 cells overexpressing EGFR by resazurin dye reduction assay
A549 = test: Cytotoxicity against human A549 cells overexpressing HDAC by resazurin dye reduction assay
[10] = target: T3, Epidermal growth factor receptor; test: Inhibition of EGF-induced EGFR phosphorylation in human CAL27 cells overexpressing EGFR after 16 hrs by Western blot; assay type: cell-based, CAL-27

Sequence of Insulin receptor (P06213 28-758 limits assumed): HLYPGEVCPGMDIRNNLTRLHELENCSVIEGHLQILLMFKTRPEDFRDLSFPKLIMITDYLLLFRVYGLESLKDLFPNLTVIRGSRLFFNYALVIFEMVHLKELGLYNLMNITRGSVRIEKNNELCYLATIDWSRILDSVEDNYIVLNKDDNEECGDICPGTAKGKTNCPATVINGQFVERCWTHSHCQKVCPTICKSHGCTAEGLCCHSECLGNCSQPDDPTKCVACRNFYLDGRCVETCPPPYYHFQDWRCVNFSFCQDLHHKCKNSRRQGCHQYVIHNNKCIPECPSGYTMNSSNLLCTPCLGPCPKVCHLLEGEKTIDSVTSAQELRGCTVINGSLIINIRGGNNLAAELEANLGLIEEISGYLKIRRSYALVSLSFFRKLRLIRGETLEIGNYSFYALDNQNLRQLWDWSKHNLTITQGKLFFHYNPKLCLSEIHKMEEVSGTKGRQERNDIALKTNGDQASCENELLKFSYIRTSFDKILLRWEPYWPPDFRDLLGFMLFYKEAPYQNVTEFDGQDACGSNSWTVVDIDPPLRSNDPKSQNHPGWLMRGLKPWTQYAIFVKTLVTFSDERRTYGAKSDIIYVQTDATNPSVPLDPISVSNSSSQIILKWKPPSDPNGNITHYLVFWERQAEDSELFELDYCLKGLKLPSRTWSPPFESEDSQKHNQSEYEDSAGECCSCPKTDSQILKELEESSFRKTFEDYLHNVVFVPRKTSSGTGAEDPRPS
Sequence of Insulin receptor (P06213 763-1382 limits assumed): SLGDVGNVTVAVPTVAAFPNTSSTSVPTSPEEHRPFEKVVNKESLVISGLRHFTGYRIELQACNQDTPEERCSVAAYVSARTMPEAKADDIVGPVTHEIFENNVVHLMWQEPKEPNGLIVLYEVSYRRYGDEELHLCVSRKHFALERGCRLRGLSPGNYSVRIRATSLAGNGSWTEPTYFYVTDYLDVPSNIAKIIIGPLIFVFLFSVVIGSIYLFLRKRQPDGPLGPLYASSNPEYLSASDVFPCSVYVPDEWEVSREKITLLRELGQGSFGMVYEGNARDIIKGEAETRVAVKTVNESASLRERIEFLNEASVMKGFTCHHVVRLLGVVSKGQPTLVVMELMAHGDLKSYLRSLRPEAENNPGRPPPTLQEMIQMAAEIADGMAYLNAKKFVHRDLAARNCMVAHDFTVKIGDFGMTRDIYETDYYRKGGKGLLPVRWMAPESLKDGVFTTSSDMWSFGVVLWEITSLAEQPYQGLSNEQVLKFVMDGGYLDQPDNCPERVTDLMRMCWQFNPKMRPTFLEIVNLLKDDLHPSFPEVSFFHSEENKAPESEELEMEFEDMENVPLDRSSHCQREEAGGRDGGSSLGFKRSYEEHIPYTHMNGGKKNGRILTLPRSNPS
Sequence of Platelet-derived growth factor receptor beta (P09619 whole entry): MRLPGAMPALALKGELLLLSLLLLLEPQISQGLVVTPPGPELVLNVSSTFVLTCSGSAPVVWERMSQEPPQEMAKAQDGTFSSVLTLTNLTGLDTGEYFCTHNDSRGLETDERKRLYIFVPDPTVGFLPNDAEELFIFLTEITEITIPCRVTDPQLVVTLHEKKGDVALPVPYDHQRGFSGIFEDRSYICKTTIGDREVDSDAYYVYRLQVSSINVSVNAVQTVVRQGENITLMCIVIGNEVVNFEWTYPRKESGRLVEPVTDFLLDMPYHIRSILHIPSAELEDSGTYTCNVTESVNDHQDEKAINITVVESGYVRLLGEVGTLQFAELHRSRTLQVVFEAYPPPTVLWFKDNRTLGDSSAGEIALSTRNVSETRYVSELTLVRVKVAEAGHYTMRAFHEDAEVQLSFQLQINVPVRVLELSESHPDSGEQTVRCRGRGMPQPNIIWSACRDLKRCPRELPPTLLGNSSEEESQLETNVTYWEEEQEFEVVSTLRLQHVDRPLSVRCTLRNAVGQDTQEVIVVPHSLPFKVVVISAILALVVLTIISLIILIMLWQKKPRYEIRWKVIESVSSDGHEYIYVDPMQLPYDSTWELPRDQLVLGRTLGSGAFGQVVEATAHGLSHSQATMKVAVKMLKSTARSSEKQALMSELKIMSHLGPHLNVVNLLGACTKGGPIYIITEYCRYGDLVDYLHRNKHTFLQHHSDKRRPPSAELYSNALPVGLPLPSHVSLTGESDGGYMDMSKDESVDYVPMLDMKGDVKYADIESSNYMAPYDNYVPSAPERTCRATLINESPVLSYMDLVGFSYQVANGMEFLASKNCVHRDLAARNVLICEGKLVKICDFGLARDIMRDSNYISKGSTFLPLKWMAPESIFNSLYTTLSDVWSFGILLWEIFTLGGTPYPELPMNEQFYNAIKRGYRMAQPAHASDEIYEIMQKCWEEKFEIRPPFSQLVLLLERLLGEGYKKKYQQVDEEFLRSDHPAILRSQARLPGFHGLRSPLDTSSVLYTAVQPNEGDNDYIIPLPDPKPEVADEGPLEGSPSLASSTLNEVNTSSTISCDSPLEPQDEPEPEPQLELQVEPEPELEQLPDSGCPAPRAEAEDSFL
T3 sequence (P00533 whole entry): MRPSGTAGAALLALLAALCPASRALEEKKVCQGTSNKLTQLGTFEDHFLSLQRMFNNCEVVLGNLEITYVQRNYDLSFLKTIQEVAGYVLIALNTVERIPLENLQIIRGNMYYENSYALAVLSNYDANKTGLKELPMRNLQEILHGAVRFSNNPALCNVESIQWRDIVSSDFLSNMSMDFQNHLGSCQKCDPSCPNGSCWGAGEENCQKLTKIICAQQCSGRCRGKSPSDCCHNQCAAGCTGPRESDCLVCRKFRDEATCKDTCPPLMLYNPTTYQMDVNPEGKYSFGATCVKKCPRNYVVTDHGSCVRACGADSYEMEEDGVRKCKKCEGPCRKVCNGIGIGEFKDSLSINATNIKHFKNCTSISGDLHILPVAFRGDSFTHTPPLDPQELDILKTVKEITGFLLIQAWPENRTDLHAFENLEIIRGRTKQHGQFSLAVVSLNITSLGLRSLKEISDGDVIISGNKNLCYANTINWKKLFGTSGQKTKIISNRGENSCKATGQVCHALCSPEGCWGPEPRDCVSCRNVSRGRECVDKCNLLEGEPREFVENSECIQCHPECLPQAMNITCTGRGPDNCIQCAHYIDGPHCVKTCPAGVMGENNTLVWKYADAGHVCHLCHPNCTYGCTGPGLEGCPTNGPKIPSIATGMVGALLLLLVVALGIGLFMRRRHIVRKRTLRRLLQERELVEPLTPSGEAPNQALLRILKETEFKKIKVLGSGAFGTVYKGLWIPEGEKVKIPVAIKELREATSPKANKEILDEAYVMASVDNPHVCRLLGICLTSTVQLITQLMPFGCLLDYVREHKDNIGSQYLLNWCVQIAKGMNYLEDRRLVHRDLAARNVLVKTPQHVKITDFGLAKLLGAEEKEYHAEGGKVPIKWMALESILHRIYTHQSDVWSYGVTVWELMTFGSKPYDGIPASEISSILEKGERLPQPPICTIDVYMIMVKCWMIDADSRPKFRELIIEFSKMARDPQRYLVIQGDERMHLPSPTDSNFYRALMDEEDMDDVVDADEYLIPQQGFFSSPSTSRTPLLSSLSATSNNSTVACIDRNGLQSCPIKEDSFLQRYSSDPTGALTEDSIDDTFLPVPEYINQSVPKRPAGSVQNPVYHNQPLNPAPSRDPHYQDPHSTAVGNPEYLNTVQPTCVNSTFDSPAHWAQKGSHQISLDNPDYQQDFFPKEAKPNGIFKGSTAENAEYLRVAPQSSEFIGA
Sequence of Histone deacetylase 3 (O15379 whole entry, the tested form may be a part): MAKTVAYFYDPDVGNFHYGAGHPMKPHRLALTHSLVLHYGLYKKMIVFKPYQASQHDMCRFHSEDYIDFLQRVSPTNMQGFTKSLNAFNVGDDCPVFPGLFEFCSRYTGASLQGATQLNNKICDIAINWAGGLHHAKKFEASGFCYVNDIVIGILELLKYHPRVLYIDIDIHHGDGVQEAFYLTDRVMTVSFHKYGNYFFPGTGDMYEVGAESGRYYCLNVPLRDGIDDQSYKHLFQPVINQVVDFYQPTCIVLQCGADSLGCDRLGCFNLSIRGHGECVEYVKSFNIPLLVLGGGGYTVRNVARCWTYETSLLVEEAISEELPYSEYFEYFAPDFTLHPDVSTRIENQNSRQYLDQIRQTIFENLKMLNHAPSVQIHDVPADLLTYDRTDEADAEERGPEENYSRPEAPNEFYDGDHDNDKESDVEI
Sequence of Serine/threonine-protein kinase PLK1 (P53350 whole entry): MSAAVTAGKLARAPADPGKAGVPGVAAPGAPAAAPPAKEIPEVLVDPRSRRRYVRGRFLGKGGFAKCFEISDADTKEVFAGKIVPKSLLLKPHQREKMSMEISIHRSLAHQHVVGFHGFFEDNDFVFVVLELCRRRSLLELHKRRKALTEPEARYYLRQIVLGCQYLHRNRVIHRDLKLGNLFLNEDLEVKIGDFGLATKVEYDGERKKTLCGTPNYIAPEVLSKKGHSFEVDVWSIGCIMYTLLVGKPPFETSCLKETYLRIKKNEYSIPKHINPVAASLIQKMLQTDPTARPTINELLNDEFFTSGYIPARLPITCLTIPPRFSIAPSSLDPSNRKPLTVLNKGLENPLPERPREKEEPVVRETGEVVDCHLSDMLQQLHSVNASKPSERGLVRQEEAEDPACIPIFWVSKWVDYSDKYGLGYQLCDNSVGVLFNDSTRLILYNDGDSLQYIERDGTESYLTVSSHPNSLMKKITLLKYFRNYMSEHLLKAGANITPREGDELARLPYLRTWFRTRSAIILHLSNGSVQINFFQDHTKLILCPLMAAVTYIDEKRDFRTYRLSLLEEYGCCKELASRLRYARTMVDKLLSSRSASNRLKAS

SMILES	IC50 (CAL-27) [µM]	IC50 (HeLa) [µM]	IC50 (SK-OV-3) [µM]	IC50 (Histone deacetylase 8) [µM]	IC50 (Histone deacetylase 3) [µM]	IC50 [1] [µM]	IC50 [2] [µM]	IC50 (SK-BR-3) [µM]	EC50 [3] [µM]	IC50 [4] [µM]	IC50 (Insulin receptor) [µM]	IC50 [5] [µM]	IC50 [6] [µM]	IC50 (Histone deacetylase 1) [µM]	IC50 [7] [µM]	IC50 [8] [µM]	IC50 [9] [µM]	IC50 (Histone deacetylase) [µM]	IC50 (A-431) [µM]	IC50 (A549) [µM]	further results
CS(=O)(=O)CCNCc1ccc(-c2ccc3ncnc(Nc4ccc(OCc5cccc(F)c5)c(Cl)c4)c3c2)o1 [LAPATINIB]	0.007	5.9	0.003	> 10	> 10	> 100	> 10	0.002	> 30												
O=C(/C=C/c1ccc(-c2ccc3ncnc(Nc4ccc(OCc5cccc(F)c5)c(Cl)c4)c3c2)cc1)NO	0.28	0.92	1.2	31	> 32	> 100	0.23	0.33	> 10	4.9	3.7	0.018	9.1	0.65	2.3	0.85	0.012	> 32	0.51	1.1	
O=C(NO)c1ccc(-c2ccc3ncnc(Nc4ccc(OCc5cccc(F)c5)c(Cl)c4)c3c2)o1	0.2		15	7.7	> 32	85		0.27	> 100	1.7	1.4	0.0039	2	> 50	1	0.46	0.002		> 5	> 16	
Nc1ccccc1NC(=O)CCc1ccc(-c2ccc3ncnc(Nc4ccc(OCc5cccc(F)c5)c(Cl)c4)c3c2)cc1	0.2	8.3	13	> 32	> 32	> 100	> 32	4.4		6.9	7.1	0.015	27	> 32	4.7	1.4	0.0047	> 32	8.6	22	
Nc1ccccc1NC(=O)/C=C/c1ccc(-c2ccc3ncnc(Nc4ccc(OCc5cccc(F)c5)c(Cl)c4)c3c2)o1	3.6	6.5	22	> 32	> 32	> 100	> 32	0.26		4.9	5.5	0.026	8.5	> 100	3.9	1.9	0.0087	> 32	5.3	18	
O=C(NO)c1ccc(-c2ccc3ncnc(Nc4ccc(OCc5cccc(F)c5)c(Cl)c4)c3c2)s1	0.65		3.1	0.98	0.56	> 100	0.05	0.42	> 100	1.7	1.7	0.0022		0.94	1.8	0.2	0.0035	0.43	1.9	3.4	
O=C(/C=C/c1ccc(-c2ccc3ncnc(Nc4ccc(OCc5cccc(F)c5)c(Cl)c4)c3c2)o1)NO	0.82	3.2	2.1	11	6.3	120	0.23	0.51	3.65	7.7	7.34	0.0025	12	0.61	3.3	0.44	0.0041	0.63	1.9	3.9	IC50 [10]: < 0.032 µM
Nc1ccccc1NC(=O)/C=C/c1cccc(-c2ccc3ncnc(Nc4ccc(OCc5cccc(F)c5)c(Cl)c4)c3c2)c1	> 16	8.4	36	> 32	> 32	> 100	> 32	50	≥ 20	2.9	2.8	0.049	5.5	> 100	2.5	0.85	0.014	> 32	12	27	
Nc1ccccc1NC(=O)c1ccc(-c2ccc3ncnc(Nc4ccc(OCc5cccc(F)c5)c(Cl)c4)c3c2)o1	0.33	8	> 50	> 32	> 32	> 100	> 10		> 100	4.5		0.0029	3.9	> 50	4	15	0.0057	> 100	> 5	≥ 16	
Nc1ccccc1NC(=O)c1ccc(-c2ccc3ncnc(Nc4ccc(OCc5cccc(F)c5)c(Cl)c4)c3c2)s1	0.71	3.7	3.9	> 32	> 32	> 100	> 10	0.62	> 100	6	2.5	0.0028	5.6	> 50	2.3	2.1	0.0049	> 10	2.4	9.1	
Nc1ccccc1NC(=O)/C=C/c1ccc(-c2ccc3ncnc(Nc4ccc(OCc5cccc(F)c5)c(Cl)c4)c3c2)cc1	4	3.1	16	> 32	> 32	> 100	> 32	17	> 100	4.9	3	0.029	6.2	> 100	2.7	1.2	0.015	> 32	3.6	15	
